This passage reports IC50 results from patent publication US12129237B2, “Substituted diaminocarboxamide and diaminocarbonitrile pyrimidines, compositions thereof, and methods of treatment therewith” (SIGNAL PHARMACEUTICALS, LLC, priority 2011, dated 2024).

Each structure is given as a SMILES string. Read-outs that look alike come from different tables or passages of the source.

The experiment concerns the target T1, JNK1 (Homo sapiens, UniProt P45983).
T1 construct: purchased Carna Biosciences
Kind of experiment: JNK1 biochemical assays (one or more of: time resolved fluorescence, Z'-LYTE Cascade, radioactive).

Where [1] appears, read: one or more of the JNK1 biochemical assays, read-out: Act. Level (JNK1 IC50 activity level).
Where [2] appears, read: tested in one or more of the JNK1 biochemical assays, read-out: Act. Level (JNK1 biochemical assay IC50 activity level).
[3] abbreviates: Table 2, JNK1 IC50 activity level, read-out: Act. Level.
Setting [4] is: Table 3, JNK1 IC50 activity level, read-out: Act. Level.

T1 sequence (P45983 whole entry): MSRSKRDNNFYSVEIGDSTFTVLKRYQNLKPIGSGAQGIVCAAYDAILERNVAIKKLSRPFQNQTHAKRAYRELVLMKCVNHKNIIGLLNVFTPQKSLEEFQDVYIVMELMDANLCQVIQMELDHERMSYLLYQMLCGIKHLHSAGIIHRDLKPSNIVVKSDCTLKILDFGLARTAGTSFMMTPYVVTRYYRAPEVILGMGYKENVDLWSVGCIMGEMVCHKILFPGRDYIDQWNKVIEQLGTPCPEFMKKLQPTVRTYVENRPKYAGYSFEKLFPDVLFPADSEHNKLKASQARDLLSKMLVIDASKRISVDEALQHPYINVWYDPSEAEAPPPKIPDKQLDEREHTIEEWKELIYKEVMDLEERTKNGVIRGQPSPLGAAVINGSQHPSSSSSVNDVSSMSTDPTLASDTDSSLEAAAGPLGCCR

For the compound `CC[C@@H](Nc1nc(N[C@H]2CC[C@H](OC)CC2)ncc1C(N)=O)C1CC1` [Example 374, 4-((R)-1-cyclopropylpropylamino)-2-((1r,4R)-4-methoxycyclohexylamino)pyrimidine-5-carboxamide], the IC50 under setting [1] is less than 200 nM.

Turning to `CCO[C@H]1CC[C@H](Nc2ncc(C(N)=O)c(NC3CCC[C@H]3O)n2)CC1` (stereo partly drawn) [Example A-66, 2-((1r,4R)-4-ethoxycyclohexylamino)-4-((1R,2R)-2-hydroxycyclopentylamino)pyrimidine-5-carboxamide], the IC50 under setting [2] was less than 200 nM.

As for `C[C@@H]1CC[C@@H](Nc2nc(NC3CCOCC3)ncc2C(N)=O)C[C@H]1O` [Example 208, 4-((1R,3R,4R)-3-hydroxy-4-methylcyclohexylamino)-2-(tetrahydro-2H-pyran-4-ylamino)pyrimidine-5-carboxamide], under setting [1], the IC50 was less than 200 nM.

On to `CO[C@H]1CC[C@H](Nc2ncc(C(N)=O)c(N[C@H]3C[C@@H](C)C3)n2)CC1` [Example 337, 2-((1r,4r)-4-methoxycyclohexylamino)-4-((1s,3s)-3-methycyclobutylamino)pyrimidine-5-carboxamide], for which the IC50 under setting [1] was less than 200 nM.

Take `CCC(C)(C)Nc1nc(NC23CCC(O)(CC2)C3)ncc1C(N)=O` [Example 452, 2-(4-hydroxybicyclo[2.2.1]heptan-1-ylamino)-4-(tert-pentylamino)pyrimidine-5-carboxamide]: under setting [1], the IC50 is less than 200 nM.

Regarding `C[C@@H](Nc1ncc(C(N)=O)c(N[C@@H]2CCC[C@H](O)C2)n1)c1ccc(F)cc1` [Example B-89, 2-((R)-1-(4-fluorophenyl)ethylamino)-4-((1R,3S)-3-hydroxycyclohexylamino)pyrimidine-5-carboxamide], the IC50 under setting [3] is less than 200 nM.

`CCO[C@H]1CC[C@@H](Nc2nc(NC3CCOCC3)ncc2C(N)=O)CC1` [Example A-115, 4-((1s,4s)-4-ethoxycyclohexylamino)-2-(tetrahydro-2H-pyran-4-ylamino)pyrimidine-5-carboxamide]: the IC50 under setting [2] is less than 200 nM.

Turning to `CC1(C)CCC(Nc2nc(NC3CCC3)ncc2C(N)=O)CC1O` (stereo not drawn) [Example 429, 2-(cyclobutylamino)-4-(3-hydroxy-4,4-dimethylcyclohexylamino)pyrimidine-5-carboxamide], the IC50 under setting [1] was less than 200 nM.

Consider `CCO[C@H]1CC[C@H](Nc2ncc(C#N)c(N[C@H]3CC[C@H](O)CC3)n2)CC1` [Example C-25, 2-((1r,4r)-4-ethoxycyclohexylamino)-4-((1r,4r)-4-hydroxycyclohexylamino) pyrimidine-5-carbonitrile], for which the IC50 under setting [4] fell in the range of 800 to 1000 nM.

For `CCO[C@H]1CC[C@H](Nc2ncc(C(N)=O)c(NC3CCC3)n2)CC1` [Example A-197, 4-(cyclobutylamino)-2-((1r,4r)-4-ethoxycyclohexylamino)pyrimidine-5-carboxamide], the IC50 under setting [2] is less than 200 nM.

Turning to `CC(C)(C)Nc1nc(NC2(C)CCOCC2)ncc1C(N)=O` [Example 389, 4-(tert-butylamino)-2-(4-methyltetrahydro-2H-pyran-4-ylamino)pyrimidine-5-carboxamide], the IC50 under setting [1] is less than 200 nM.

On to `CCC(=O)N1CCC(Nc2nc(N[C@H]3CC[C@H](O)CC3)ncc2C(N)=O)CC1` [Example A-90, 2-((1r,4r)-4-hydroxycyclohexylamino)-4-(1-propionylpiperidin-4-ylamino)pyrimidine-5-carboxamide], for which the IC50 under setting [2] was less than 200 nM.

For `NC(=O)c1cnc(N[C@H]2CC[C@H](OC3CC3)CC2)nc1NC1C2CC1C2` (stereo partly drawn) [Example 486, 4-(bicyclo[1.1.1]pentan-2-ylamino)-2-((1r,4r)-4-cyclopropoxycyclohexylamino)pyrimidine-5-carboxamide], the IC50 under setting [1] was less than 200 nM.

As for `C[C@]1(O)CCC[C@@H](Nc2nc(N[C@H]3CC[C@H](OCC(F)(F)F)CC3)ncc2C#N)C1` [Example C-40], the IC50 under setting [4] was less than 200 nM.

For the compound `CC(C)(C)Nc1nc(N[C@@H]2CCCC[C@@H](O)C2)ncc1C(N)=O` [Example 386, 4-(tert-butylamino)-2-((1R,3R)-3-hydroxycycloheptylamino)pyrimidine-5-carboxamide], the IC50 under setting [1] is less than 200 nM.

In the case of `NC(=O)c1cnc(NC23CCC(CC2)CC3)nc1N[C@@H]1CCC[C@H](O)C1` [Example A-159, 2-(bicyclo[2.2.2]octan-1-ylamino)-4-((1R,3S)-3-hydroxycyclohexylamino)pyrimidine-5-carboxamide], under setting [2], the IC50 was less than 200 nM.

With `C[C@]1(O)CCC[C@@H](Nc2nc(N[C@H]3CCc4ncccc4C3)ncc2C(N)=O)C1` [Example B-102, 4-((1R,3S)-3-hydroxy-3-methylcyclohexylamino)-2-((S)-5,6,7,8-tetrahydroquinolin-6-ylamino)pyrimidine-5-carboxamide], under setting [3], the IC50 is less than 200 nM.

Take `N#Cc1cnc(N[C@H]2CC[C@H](OCC(F)(F)F)CC2)nc1N[C@@H]1CCC[C@H](O)C1` [Example C-14, 4-((1R,3S)-3-hydroxycyclohexylamino)-2-((1r,4R)-4-(2,2,2-trifluoroethoxy)cyclohexylamino) pyrimidine-5-carbonitril]: the IC50 under setting [4] is less than 200 nM.

For the compound `COc1ccc(CCNc2ncc(C(N)=O)c(Nc3ccccc3)n2)cc1` [Example B-38, 2-(4-methoxyphenethylamino)-4-(phenylamino)pyrimidine-5-carboxamide], the IC50 under setting [3] is 200 to 800 nM.

With `CC(C)(Nc1nc(NC23CCC(O)(CC2)C3)ncc1C(N)=O)C1CC1` [Example 445, 4-(2-cyclopropylpropan-2-ylamino)-2-(4-hydroxybicyclo[2.2.1]heptan-1-ylamino)pyrimidine-5-carboxamide], the IC50 under setting [1] was less than 200 nM.

`COc1ccc(NC(C)=O)cc1Nc1ncc(C(N)=O)c(Nc2ccccc2)n1` [Example B-32, 2-(5-acetamido-2-methoxyphenylamino)-4-(phenylamino)pyrimidine-5-carboxamide]: the IC50 under setting [3] is 200 to 800 nM.

Consider `CC(C)(Nc1nc(N[C@@H]2CCC[C@H](O)C2)ncc1C(N)=O)C1CC1` [Example 466, 4-(2-cyclopropylpropan-2-ylamino)-2-((1R,3S)-3-hydroxycyclohexylamino)pyrimidine-5-carboxamide], for which the IC50 under setting [1] is less than 200 nM.

With `NC(=O)c1cnc(NC2CC2)nc1N[C@@H]1CCCC[C@H](O)C1` [Example 377, 2-(cyclopropylamino)-4-((1R,3S)-3-hydroxycycloheptylamino)pyrimidine-5-carboxamide], under setting [1], the IC50 was less than 200 nM.

`CCO[C@H]1CCC[C@@H]1Nc1nc(N[C@H]2CC[C@H](OCC)CC2)ncc1C(N)=O` [Example A-73, 2-((1r,4S)-4-ethoxycyclohexylamino)-4-((1S,2S)-2-ethoxycyclopentylamino)pyrimidine-5-carboxamide]: under setting [2], the IC50 was less than 200 nM.

Regarding `CC1(Nc2nc(NC34CCC(O)(CC3)C4)ncc2C(N)=O)CCC1` [Example 451, 2-(4-hydroxybicyclo[2.2.1]heptan-1-ylamino)-4-(1-methylcyclobutylamino)pyrimidine-5-carboxamide], the IC50 under setting [1] is less than 200 nM.

In the case of `CCO[C@H]1CC[C@H](Nc2ncc(C(N)=O)c(NC3(CC)CCCCC3)n2)CC1` [Example 478, 2-((1r,4r)-4-ethoxycyclohexylamino)-4-(1-ethylcyclohexylamino)pyrimidine-5-carboxamide], the IC50 under setting [1] is less than 200 nM.

Take `NC(=O)c1cnc(N[C@H]2CC[C@H](O)CC2)nc1NC1CCCC1` [Example A-148, 4-(cyclopentylamino)-2-((1r,4r)-4-hydroxycyclohexylamino)pyrimidine-5-carboxamide]: under setting [2], the IC50 is less than 200 nM.

As for `NC(=O)c1cnc(N[C@H]2CCc3cnccc3C2)nc1N[C@@H]1CCC[C@H](O)C1` [Example B-95, 4-((1R,3S)-3-hydroxycyclohexylamino)-2-((S)-5,6,7,8-tetrahydroisoquinolin-6-ylamino)pyrimidine-5-carboxamide], the IC50 under setting [3] was less than 200 nM.

With `NC(=O)c1cnc(N[C@H]2CC[C@H](O)CC2)nc1NCC1CCC1` [Example 221, 4-(cyclobutylmethylamino)-2-((1r,4r)-4-hydroxycyclohexylamino)pyrimidine-5-carboxamide], the IC50 under setting [1] was less than 200 nM.

As to `C[C@@H](Nc1nc(NC23CCC(O)(CC2)C3)ncc1C(N)=O)C1CC1` [Example 450, (R)-4-(1-cyclopropylethylamino)-2-(4-hydroxybicyclo[2.2.1]heptan-1-ylamino)pyrimidine-5-carboxamide], the IC50 under setting [1] was less than 200 nM.

With `CC(C)CC(=O)N[C@H]1CC[C@@H](Nc2nc(NC3CC3)ncc2C(N)=O)CC1` [Example A-138, 2-(cyclopropylamino)-4-((1s,4s)-4-(3-methylbutanamido)cyclohexylamino)pyrimidine-5-carboxamide], the IC50 under setting [2] was in the range of 800 to 1000 nM.

Turning to `CC1(Nc2nc(N[C@@H]3CCC[C@H](O)C3)ncc2C(N)=O)CCC1` [Example 404, 2-((1R,3S)-3-hydroxycyclohexylamino)-4-(1-methylcyclobutylamino)pyrimidine-5-carboxamide], the IC50 under setting [1] was less than 200 nM.

For the compound `C[C@H](Nc1nc(N[C@H]2CC[C@H](O)CC2)ncc1C(N)=O)C1CC1` [Example 263, 4-((S)-1-cyclopropylethylamino)-2-((1r,4S)-4-hydroxycyclohexylamino)pyrimidine-5-carboxamide], the IC50 under setting [1] is less than 200 nM.

As for `CO[C@H]1CC[C@@H](Nc2nc(N[C@@H]3CC[C@@H](CO)C3)ncc2C(N)=O)CC1` [Example A-97, 2-((1R,3R)-3-(hydroxymethyl)cyclopentylamino)-4-((1s,4S)-4-methoxycyclohexylamino)pyrimidine-5-carboxamide], the IC50 under setting [2] was less than 200 nM.

As to `CCNc1nc(N[C@H]2CC[C@H](O)CC2)ncc1C(N)=O` [Example 269, 4-(ethylamino)-2-((1r,4r)-4-hydroxycyclohexylamino)pyrimidine-5-carboxamide], under setting [1], the IC50 is less than 200 nM.

With `CC(C)Nc1ncc(C(N)=O)c(N[C@@H]2CCC[C@](C)(O)C2)n1` [Example 338, 4-((1R,3S)-3-hydroxy-3-methylcyclohexylamino)-2-(isopropylamino)pyrimidine-5-carboxamide], the IC50 under setting [1] is less than 200 nM.
